Our source for the melting point values is patent US6962922B2, “Alkynylated quinazoline compounds” (Warner-Lambert Company LLC, priority 2001, dated 2005).

Compound `Cn1c(=O)n(Cc2ccc(F)c(F)c2)c(=O)c2cc(C#CCn3ccnc3)ccc21` [Example 29, 3-(3,4-Difluoro-benzyl)-6-(3-imidazol-1-yl-prop-1-ynyl)-1-methyl-1H-quinazoline-2,4-dione] registered a melting point of 163 to 165 °C. The same measure for `Cn1c(=O)n(Cc2ccc(Cl)c(Cl)c2)c(=O)c2cc(C#CCn3cncn3)ccc21` [Example 34, 3-(3,4-Dichloro-benzyl)-1-methyl-6-(3-[1,2,4]triazol-1-yl-prop-1-ynyl)-1H-quinazoline-2,4-dione]: 171 to 172 °C; for `Cn1c(=O)n(Cc2cccc(Cl)c2)c(=O)c2cc(C#CCc3ccccc3)ccc21` [Example 25, 3-(3-Chloro-benzyl)-1-methyl-6-(3-phenyl-prop-ynyl)-1H-quinazoline-2,4-dione]: 164 to 166 °C. The same measure for `Cn1c(=O)n(Cc2ccc(Cl)cc2)c(=O)c2cc(C#CCc3ccccc3)ccc21` [Example 27, 3-(4-Chloro-benzyl)-1-methyl-6-(3-phenyl-prop-1-ynyl)-1H-quinazoline-2,4-dione]: 175 to 176 °C; for `Cn1c(=O)n(Cc2ccc(F)c(F)c2)c(=O)c2cc(C#CCn3cncn3)ccc21` [Example 33, 3-(3,4-Difluoro-benzyl)-1-methyl-6-(3-[1,2,4]triazol-1-yl-prop-1-ynyl)-1H-quinazoline-2,4-dione]: 185 to 187 °C.

On to `Cn1c(=O)n(Cc2ccc(CO)cc2)c(=O)c2cc(C#CCc3ccccc3)ccc21` [Example 24, 3-(4-Hydroxymethyl-benzyl)-1-methyl-6-(3-phenyl-prop-1-ynyl)-1H-quinazoline-2,4-dione], for which the melting point was 161 to 164 °C. `CN(C)C(=O)c1ccc(Cn2c(=O)c3cc(C#CCc4ccccc4)ccc3n(C)c2=O)cc1` [Example 19, N,N-Dimethyl-4-[1-methyl-2,4-dioxo-6-(3-phenyl-prop-1-ynyl)-1,4-dihydro-2H-quinazolin-3-ylmethyl]-benzamide] returned a melting point of 171 to 173 °C. The same measure for `Cn1c(=O)n(Cc2cccc(F)c2)c(=O)c2cc(C#CCc3ccccc3)ccc21` [Example 26, 3-(3-Fluoro-benzyl)-1-methyl-6-(3-phenyl-prop-1-ynyl)-1H-quinazoline-2,4-dione]: 143 to 144 °C. The same measure for `Cn1c(=O)n(Cc2cccc(Cl)c2)c(=O)c2cc(C#CCc3ccc(Cl)cc3)ccc21` [Example 31, 3-(3-Chloro-benzyl)-6-[3-(4-chloro-phenyl)-prop-1-ynyl]-1-methyl-1H-quinazoline-2,4-dione]: 169 to 171 °C; for `Cn1c(=O)n(Cc2ccc(F)c(F)c2)c(=O)c2cc(C#CCn3ccnn3)ccc21` [Example 32, 3-(3,4-Difluoro-benzyl)-1-methyl-6-(3-[1,2,3]triazol-1-yl-prop-1-ynyl)-1H-quinazoline-2,4-dione]: 167 to 169 °C. Take `Cn1c(=O)n(Cc2ccc(F)c(F)c2)c(=O)c2cc(C#CCc3ccc(Cl)cc3)ccc21` [Example 30, 6-[3-(4-Chloro-phenyl)-prop-1-ynyl]-3-(3,4-difluoro-benzyl)-1-methyl-1H-quinazoline-2,4-dione]: the melting point was 163 to 165 °C.
